Assay results: US20110160249A1, “5-LIPOXYGENASE-ACTIVATING PROTEIN INHIBITOR” (priority 2008, published 2011)
Several values for one entry are separate records, joined by “and”; a condition that tells them apart may be missing. Identical values can stand only once. Like-named read-outs stand apart in the source and are kept apart here. Marks after values point to notes of the source that are not given here.

Tests used:
[1] = molecular target: T1, human FLAP (Homo sapiens, UniProt P20292); assay: FLAP binding assay; conditions: individual tests 1-8; read-out: IC50 (nM), Inhibition of FLAP Radioligand Binding
T1 sequence (P20292 1-161): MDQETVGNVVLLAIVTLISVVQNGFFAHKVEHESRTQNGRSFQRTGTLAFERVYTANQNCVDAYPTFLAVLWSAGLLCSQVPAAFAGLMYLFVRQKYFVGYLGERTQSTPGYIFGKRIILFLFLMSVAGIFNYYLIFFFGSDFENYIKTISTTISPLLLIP

[2] = Thermodynamic Aqueous Solubility by HPLC; assay type: physicochemical; conditions: water, 25° C., 24 hours
Procedure: Aqueous solubility was determined by suspending sufficient compound in water to give a maximum final concentration of ≧10 mg·ml^−1 of the parent free-form of the compound. The suspension was equilibrated at 25° C. for 24 hours then the pH was measured. The suspension was then filtered through a glass fibre C filter into a 96 well plate. The filtrate was then diluted by a factor of 101. Quantitation was by HPLC with reference to a standard solution of approximately 0.1 mg·ml^−1 in DMSO. Different volumes of the standard, diluted and undiluted sample solutions were injected. The solubility was calculated using the peak areas determined by integration of the peak found at the same retention time as the principal peak in the standard injection.
Analysis was performed on an Agilent HP1100 series system equipped with a diode array detector and using ChemStation software vB.02.01-SR1.

[3] = test system: LTB4 in Rat Whole Blood; assay: Rat whole blood LTB4 inhibition assay; assay type: cell-based; conditions: mean of 5 tests
[4] = molecular target: T2, CYP 2C19 (Homo sapiens, UniProt P33261); assay: Extracellular Cytochrome P450 inhibition, 2C19; assay type: in vitro ADME; conditions: mephenytoin 4′-hydroxylation
T2 construct: from tissue
Description: Final solvent concentrations were 1% (v/v) or less.

[5] = test system: CYP3A4; assay: Cellular Cytochrome P450 induction, CYP3A4; conditions: tested at 10 μM, cryopreserved human hepatocytes
[6] = test system: whole blood ionophore-stimulated leukotriene LTB4; assay: Phase I study, whole blood ionophore-stimulated LTB4; assay type: in vivo, human; conditions: for Emax / EC50 / EC90: Homo sapiens; for Emax: read-out: Emax (%), maximum inhibition of LTB4; for EC50: read-out: EC50 (ng/mL), concentration at which 50% inhibition was reached; for LTB4 level at t = 24 hrs. (% of baseline): oral solution
Description: Study Design: Single center, double-blind, randomized, placebo-controlled, single ascending dose followed by multiple ascending dose study.
Sample Size: (1) Single Dose Phase: eight (8) subjects (6 active, 2 placebo) per dose level; up to 5 dose levels are planned (a total of 40 subjects if all 5 dose levels are completed); and (2) Multiple Dose Phase: eight (8) subjects (6 active, 2 placebo) per dose level; up to 4 dose levels are planned (a total of 32 subjects if all 4 dose levels are completed).
Formulations: Compound 2 was supplied as an oral powder for reconstitution. Placebo solution matched. […] The placebo differed only in the absence of the active.
The following dosing cohorts were used:
Routes of Administration: All doses were administered orally with approximately 100 mL of water rinse. Subjects were fasted for at least 8 hours prior to dosing and for 2 hours after dosing. For BID dosing in the Multiple Dose Phase, when applicable, subjects were fasted for at least 2 hours prior to the second daily dose.
Plasma concentrations of Compound 1 were determined using a validated LC/MS method. Whole blood ionophore-stimulated leukotriene LTB4 and urinary LTE4 production were assayed by ELISA and mass spectrometry, respectively.
Analysis of Samples: Concentrations of Compound 1 was determined in plasma samples collected from subjects. Similarly, concentrations of LTB4 in plasma and urinary LTE4 were determined in blood and urine samples collected.

[7] = test system: CYP2C9; assay: Cellular Cytochrome P450 induction, CYP2C9; conditions: tested at 10 μM, cryopreserved human hepatocytes
[8] = pKa and log P of the sodium salt; assay type: physicochemical
[9] = Multiple dose part, Day 1, 10 mg
[10] = Multiple dose part, Day 1, 50 mg
[11] = Multiple dose part, Day 1, 150 mg
[12] = Multiple dose part, Day 1, 450 mg
[13] = Multiple dose part, Day 11, 10 mg
[14] = Multiple dose part, Day 11, 50 mg
[15] = Multiple dose part, Day 11, 150 mg
[16] = Multiple dose part, Day 11, 450 mg
[17] = Single dose part, Day 1, 600 mg
[18] = Single dose part, Day 1, 1000 mg

T2 sequence (P33261 whole entry): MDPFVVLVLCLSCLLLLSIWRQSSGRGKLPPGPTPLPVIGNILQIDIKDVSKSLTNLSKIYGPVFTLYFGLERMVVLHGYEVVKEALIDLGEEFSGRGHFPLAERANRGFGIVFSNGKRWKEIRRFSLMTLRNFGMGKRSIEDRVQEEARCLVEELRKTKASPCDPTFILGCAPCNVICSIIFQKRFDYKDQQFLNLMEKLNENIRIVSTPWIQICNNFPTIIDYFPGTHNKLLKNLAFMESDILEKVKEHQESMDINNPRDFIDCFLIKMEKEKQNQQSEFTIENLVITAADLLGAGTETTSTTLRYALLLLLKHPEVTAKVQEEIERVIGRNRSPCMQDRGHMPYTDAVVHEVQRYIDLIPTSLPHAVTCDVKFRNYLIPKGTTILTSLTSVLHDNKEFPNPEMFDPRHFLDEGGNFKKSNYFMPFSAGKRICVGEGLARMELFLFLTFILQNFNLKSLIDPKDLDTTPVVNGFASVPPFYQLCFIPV

## CCOc1ccc(-c2ccc(Cn3c(CC(C)(C)C(=O)[O-])c(SC(C)(C)C)c4cc(OCc5ccc(C)cn5)ccc43)cc2)cn1.[Na+] [Compound 2, sodium 3-[3-(tert-butylsulfanyl)-1-[4-(6-ethoxy-pyridin-3-yl)benzyl]-5-(5-methyl-pyridin-2-yl-methoxy)-1H-indol-2-yl]-2,2-dimethylpropionate]
[1]
  IC50: 4.9 nM and 4.1 nM and 1.8 nM
[2]
  Concentration of filtrate (as mg/mL of free base): greater than 10 mg/mL
  pH of unfiltered saturated solution: above 9
[3]
  IC50: 239 nM
  IC90: 1630 nM
[4]
  IC50: > 40 µM
[5]
  induction of CYP3A4: No apparent induction
[6]; 24 h, Multiple dose part, Day 1, 10 mg
  Emax: 60.8%
[6]; 24 h, Multiple dose part, Day 1, 50 mg
  Emax: 89.6%
[6]; 24 h, Multiple dose part, Day 1, 150 mg
  Emax: 98.5%
[6]; 24 h, Multiple dose part, Day 1, 450 mg
  Emax: 97.6%
[6]; 24 h, Multiple dose part, Day 1, Multiple dose total
  EC50: 51 ng/mL
[6]; 24 h, Single dose part, Day 1, 50 mg
  Emax: 87.9%
[6]; 24 h, Single dose part, Day 1, 150 mg
  Emax: 98.8%
[6]; 24 h, Single dose part, Day 1, 300 mg
  Emax: 102%
[6]; 24 h, Single dose part, Day 1, 600 mg
  Emax: 100%
[6]; 24 h, Single dose part, Day 1, 1000 mg
  Emax: 99.6%
[6]; 24 h, Single dose part, Day 1, Single dose total
  EC50: 90 ng/mL
[6]; 24 h, read-out: EC90 (ng/mL), concentration at which 90% inhibition was reached, Multiple dose part, Day 1, Multiple dose total
  EC90: 296 ng/mL
[6]; 24 h, read-out: EC90 (ng/mL), concentration at which 90% inhibition was reached, Single dose part, Day 1, Single dose total
  EC90: 342 ng/mL
[6]; 264 h, Multiple dose part, Day 11, 10 mg
  Emax: 74.4%
[6]; 264 h, Multiple dose part, Day 11, 50 mg
  Emax: 97.9%
[6]; 264 h, Multiple dose part, Day 11, 150 mg
  Emax: 99.7%
[6]; 264 h, Multiple dose part, Day 11, 450 mg
  Emax: 101%
[6]; 264 h, Multiple dose part, Day 11, Multiple dose total
  EC50: 52 ng/mL
[6]; 264 h, read-out: EC90 (ng/mL), concentration at which 90% inhibition was reached, Multiple dose part, Day 11, Multiple dose total
  EC90: 308 ng/mL
[6]; [9]
  Tmax (h), time to reach Emax: 12.00 h
  tE>90% (h), time above 90% LTB4 inhibition: 0.0 h
[6]; [10]
  Tmax (h), time to reach Emax: 4.00 h
  tE>50% (h), time above 50% LTB4 inhibition: >23.3 h
  tE>90% (h), time above 90% LTB4 inhibition: 0.0 h
[6]; [11]
  Tmax (h), time to reach Emax: 3.00 h
  tE>50% (h), time above 50% LTB4 inhibition: >23.4 h
[6]; [12]
  Tmax (h), time to reach Emax: 3.00 h
  tE>50% (h), time above 50% LTB4 inhibition: >23.7 h
[6]; [13]
  Tmax (h), time to reach Emax: 12.00 h
  tE>90% (h), time above 90% LTB4 inhibition: 0.0 h
[6]; [14]
  Tmax (h), time to reach Emax: 4.00 h
  tE>90% (h), time above 90% LTB4 inhibition: 10.0 h
[6]; [15]
  Tmax (h), time to reach Emax: 2.00 h
  tE>50% (h), time above 50% LTB4 inhibition: >72.0 h
[6]; [16]
  Tmax (h), time to reach Emax: 2.00 h
  tE>50% (h), time above 50% LTB4 inhibition: >72.0 h
[6]; Single dose part, Day 1, 50 mg
  Tmax (h), time to reach Emax: 8.00 h
  tE>90% (h), time above 90% LTB4 inhibition: 0.0 h
[6]; Single dose part, Day 1, 150 mg
  Tmax (h), time to reach Emax: 6.00 h
[6]; Single dose part, Day 1, 300 mg
  Tmax (h), time to reach Emax: 8.00 h
[6]; Single dose part, Day 1, 300 mg, estimated
  tE>50% (h), time above 50% LTB4 inhibition: ~30^# h
[6]; [17]
  Tmax (h), time to reach Emax: 6.00 h
  tE>50% (h), time above 50% LTB4 inhibition: >71.7 h
[6]; [18]
  Tmax (h), time to reach Emax: 6.00 h
  tE>50% (h), time above 50% LTB4 inhibition: >71.7 h
[6]; single dose 50 mg
  LTB4 level at t = 24 hrs. (% of baseline): 37 ± 4.7 % of baseline
[6]; single dose 150 mg
  LTB4 level at t = 24 hrs. (% of baseline): 24 ± 4.4 % of baseline
[6]; single dose 300 mg
  LTB4 level at t = 24 hrs. (% of baseline): 23 ± 8.3 % of baseline
[6]; single dose 600 mg
  LTB4 level at t = 24 hrs. (% of baseline): 1.6 ± 0.98 % of baseline
[6]; single dose 1000 mg
  LTB4 level at t = 24 hrs. (% of baseline): 1.9 ± 0.41 % of baseline
[7]
  induction of CYP2C9: No apparent induction
[8]
  pKa: 3.45
